Columns and labels:
[1] = tested on: Listeria monocytogenes ATCC 19112; experiment: Antagonistic activity, diffusion-well method; assay type: cell-based; details: ATCC19112, compounds at 2.5 µM, wells 8 mm, 37 °C, 18 h
Method: (§1) The antimicrobial activity of the HESP, ligands ([…], and HTSC), and complexes with HP-β-CD were tested against Gram-positive bacteria (Listeria monocytogenes ATCC 19111, Listeria monocytogenes ATCC 19112, Listeria monocytogenes ATCC 19115, Staphylococcus aureus ATCC 29737, Staphylococcus aureus ATCC 25923, Staphylococcus aureus ATCC 27734) and Gram-negative bacteria (Escherichia coli ATCC 11303, Escherichia coli ATCC 35218, Salmonella Typhimurium, ATCC 14028, Salmonella Enteritidis ATCC 13076, Salmonella Choleraesuis ATCC 7001). The strains were activated from cryobanks by passaging them twice onto a Nutrient Broth (Merck, Darmstadt, Germany). All bacteria were grown for 24 h at 37 °C. Antagonistic activity of the following chemical compounds: […], and […] determined by the diffusion-well method. The test strains were plated on Mueller-Hinton Agar (Merck, Darmstadt, Germany) in the form of a surface layer of bacteria according to the procedures recommended by the European Committee on Antimicrobial Susceptibility Testing EUCAST [74]. The detailed methodology was described in the paper by Sykuła et al.. Bacterial inoculum was prepared from an overnight solid culture. The inoculum density was 1-2 × 10^8 CFU/mL, which corresponds to a McFarland standard of 0.5. The samples of the test compounds were dissolved in 5% (w/w) DMSO to obtain a concentration of 500 μM, and were sterilized using filtration (filter pore width 0.2 μm; (Sartorius AG, Gottingen, Germany). The bacteria inoculum test culture (0.1 mL) smear conducted was on sterile Mueller-Hinton Agar (Merck, Darmstadt, Germany) plates. […] A total of 50 μL of the prepared solutions of the tested compounds at a concentration of 500 μM were added to the wells. The plates prepared in this way were incubated at 37 °C for 18 h. After this time, zones of growth inhibition were read and the result was given in mm. The experiment was carried out in two independent repetitions. The results were expressed in average values and standard deviation. The results were analyzed using a one-way ANOVA and post-hoc Tukey's test.

[2] = tested on: Salmonella Enteritidis ATCC 13076; experiment: Antagonistic activity, diffusion-well method; assay type: cell-based; details: Salmonella enterica, compounds at 2.5 µM, wells 8 mm, 37 °C, 18 h
Method: as §1

[3] = tested on: Listeria monocytogenes ATCC 19111; experiment: Antagonistic activity, diffusion-well method; assay type: cell-based; details: ATCC19111, compounds at 2.5 µM, wells 8 mm, 37 °C, 18 h
Method: as §1

[4] = tested on: Staphylococcus aureus ATCC 27734; experiment: Antagonistic activity, diffusion-well method; assay type: cell-based; details: ATCC27734, compounds at 2.5 µM, wells 8 mm, 37 °C, 18 h
Method: as §1

[5] = tested on: Salmonella Choleraesuis ATCC 7001; experiment: Antagonistic activity, diffusion-well method; assay type: cell-based; details: Salmonella enterica, compounds at 2.5 µM, wells 8 mm, 37 °C, 18 h
Method: as §1

[6] = tested on: Listeria monocytogenes ATCC 19115; experiment: Antagonistic activity, diffusion-well method; assay type: cell-based; details: ATCC19115, compounds at 2.5 µM, wells 8 mm, 37 °C, 18 h
Method: as §1

[7] = tested on: Salmonella Typhimurium ATCC 14028; experiment: Antagonistic activity, diffusion-well method; assay type: cell-based; details: Salmonella enterica, compounds at 2.5 µM, wells 8 mm, 37 °C, 18 h
Method: as §1

HaCaT cells = experiment: MTT cytotoxicity assay on HaCaT keratinocytes; assay type: cell-based, human
Method: HaCaT keratinocyte cells were exposed to chemical compounds at nine different concentrations (from 3.9 to 995.6 µg/mL) in four replicates of each concentration for 24 and 48 h.
All compounds were dissolved in sterile DMSO (Merck Life Science, Warsaw, Poland) and were sterile-filtered with 0.22 µm pore size sterile disposable syringe filters.
HaCaT cell line (the normal immortalised human keratinocytes) used in the study derived from the 35th passage (the original material created by Prof. Dr. Petra Boukamp and Dr. Norbert Fusenig) was purchased from Cell Line Service GmbH (Eppelheim, Germany). The cells were cultured and propagated as described previously.
The cytotoxicity was assessed with MTT assay according to methodology applied previously.
The following final concentrations (in four replicates per experiment) of the test compounds were tested (µg/mL): 3.9; 7.8; 15.6; 31.1; 62.2; 124.5; 248.9; 497.8, and 995.6. […] Three independent experiments were conducted. The vehicle was cells in the culture medium. The assay was conducted for 24 h and 48 h.

[8] = tested on: Staphylococcus aureus ATCC 25923; experiment: Minimal inhibition concentration (dilution + diffusion-well); assay type: cell-based; details: ATCC25923, 37 °C, 18 h
Method: (§2) The MIC was performed for compounds and strains sensitive to their action in the antagonistic test. Minimum inhibitory concentration was determined by combining the dilution method with the diffusion-well method. Test compounds at a concentration of 500 μM were prepared in 5% (w/w) DMSO. Surface layer of microorganisms, against which antagonistic activity was noted, were prepared in the same way as for the antagonistic test. Then, two-fold sequential dilutions of the test compounds in the range of 500 µM to 62.5 µM were prepared. Wells with a diameter of 8 mm cut in the Mueller–Hinton Agar (Merck, Darmstadt, Germany) with the test strain were added with 50 µL of the prepared dilutions, which corresponded to the following concentrations of the tested compounds: […], 1.25 mM, 0.625 mM, and […]. Petri dishes prepared in this way were incubated at 37 °C for 18 h. After a given time, the MIC value was read. The MIC concentration expressed in µM was the first concentration of the tested compounds at which growth inhibition of the test strain was observed.

[9] = tested on: Staphylococcus aureus ATCC 29737; experiment: as above; assay type: cell-based; details: ATCC29737, 37 °C, 18 h
Method: as §2

[10] = tested on: Escherichia coli ATCC 11303; experiment: as above; assay type: cell-based; details: ATCC11303, 37 °C, 18 h
Method: as §2

MIC [8]: 2.5 µM
MIC [9]: 2.5 µM
MIC [10]: 2.5 µM
SMILES: CC(O)COC[C@H]1O[C@@H]2O[C@H]3[C@H](O)[C@@H](O)[C@@H](O[C@H]4[C@H](O)[C@@H](O)[C@@H](O[C@H]5[C@H](O)[C@@H](O)[C@@H](O[C@H]6[C@H](O)[C@@H](O)[C@@H](O[C@H]7[C@H](O)[C@@H](O)[C@@H](O[C@H]8[C@H](O)[C@@H](O)[C@@H](O[C@H]1[C@H](O)[C@H]2O)O[C@@H]8COCC(C)O)O[C@@H]7COCC(C)O)O[C@@H]6COCC(C)O)O[C@@H]5COCC(C)O)O[C@@H]4COCC(C)O)O[C@@H]3COCC(C)O (stereo partly drawn) [HP-β-CD, (2-Hydroxypropyl)-β-cyclodextrin]
zone of inhibition at 2.5 µM [1]: 0 mm
zone of inhibition at 2.5 µM [2]: 0 mm
zone of inhibition at 2.5 µM [3]: 0 mm
zone of inhibition at 2.5 µM [4]: 0 mm
zone of inhibition at 2.5 µM [5]: 0 mm
zone of inhibition at 2.5 µM [6]: 0 mm
zone of inhibition at 2.5 µM [7]: 0 mm
cytotoxicity (maximum over tested concentrations) (HaCaT cells; 24 h, 3.9-995.6 µg/mL): up to 6.6% ± 7.2
Non-cytotoxic concentration (IC0) (HaCaT cells; 24 h exposure): ≤ 31.1 µg/mL
Non-cytotoxic concentration (IC0) (HaCaT cells; 48 h exposure): ≤ 3.9 µg/mL

Reference: PMC10574185, “Encapsulation and Biological Activity of Hesperetin Derivatives with HP-β-CD” (Molecules, 2023)
